Reference: US20070010671A1, “Novel quinazoline derivatives and methods of treatment related to the use thereof” (priority 2003, published 2007)

These molecules were tested against MCH receptor (Homo sapiens, UniProt Q99705) (assay: High throughput functional screening FLIPR/FDSS6000: inhibition of MCH-evoked intracellular Ca2+ changes). Details: class by percent of control at 10^-7 M or IC50.
Assay type: cell-based
Method in brief: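 Constitutively active non-endogenous MCH-R cells; Fluo4-AM 4 μM, 2.5 mM probenecid, 1 hr, 37° C; cpd 3 min, 37° C; MCH 50 nM (antagonist mode); kinetic Ca2+ read Ex488/Em530, 290 s.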

Row | Compound | class
1 | COC(=O)c1cccc(NC(=S)NC[C@H]2CC[C@@H](Nc3nc(N(C)C)c4ccccc4n3)CC2)c1 [compound 688] | 3 (Class 3: The value of percent of control at 10^−7 M was more than 60% or the value of IC50 was more than 200 nM.)
2 | COc1cc(NC(=S)NC[C@H]2CC[C@@H](Nc3nc(N(C)C)c4ccccc4n3)CC2)cc(OC)c1OC [compound 619] | 3 (Class 3: The value of percent of control at 10^−7 M was more than 60% or the value of IC50 was more than 200 nM.)
3 | CN(C)c1nc(N[C@H]2CC[C@@H](CNC(=S)Nc3ccc(F)c(F)c3F)CC2)nc2ccccc12 [compound 633, N-[(cis-4-{[4-(dimethylamino)quinazolin-2-yl]amino}cyclohexyl)methyl]-N′-(2,3,4-trifluorophenyl)thiourea] | 2 (Class 2: The value of percent of control at 10^−7 M was from 40% to 60% or the value of IC50 was from 50 nM to 200 nM.)
4 | CN(C)c1nc(N[C@H]2CC[C@@H](CNC(=O)Nc3cccc4ccccc34)CC2)nc2ccccc12 [compound 450, N-[(cis-4-{[4-(dimethylamino)quinazolin-2-yl]amino}cyclohexyl)methyl]-N′-1-naphthylurea] | 2 (Class 2: The value of percent of control at 10^−7 M was from 40% to 60% or the value of IC50 was from 50 nM to 200 nM.)
5 | Cc1ccc(Cl)cc1NC(=O)NC[C@H]1CC[C@@H](Nc2nc(N(C)C)c3ccccc3n2)CC1 [compound 565] | 2 (Class 2: The value of percent of control at 10^−7 M was from 40% to 60% or the value of IC50 was from 50 nM to 200 nM.)
6 | CC(C)c1ccc(NC(=O)NC[C@H]2CC[C@@H](Nc3nc(N(C)C)c4ccccc4n3)CC2)cc1 [compound 440] | 3 (Class 3: The value of percent of control at 10^−7 M was more than 60% or the value of IC50 was more than 200 nM.)
7 | CCc1cccc(C(C)C)c1NC(=O)NC[C@H]1CC[C@@H](Nc2nc(N(C)C)c3ccccc3n2)CC1 [compound 493, N-[(cis-4-{[4-(dimethylamino)quinazolin-2-yl]amino}cyclohexyl)methyl]-N′-(2-ethyl-6-isopropylphenyl)urea] | 1 (Class 1: The value of percent of control at 10^−7 M was less than 40% or the value of IC50 was less than 50 nM.)
8 | CN(C)c1nc(N[C@H]2CC[C@@H](NC(=S)Nc3ccc(Oc4ccccc4)cc3)CC2)nc2ccccc12 [compound 323] | 3 (Class 3: The value of percent of control at 10^−7 M was more than 60% or the value of IC50 was more than 200 nM.)
9 | CN(C)c1nc(N[C@H]2CC[C@@H](CNC(=S)NCCC3=CCCCC3)CC2)nc2ccccc12 [compound 779] | 3 (Class 3: The value of percent of control at 10^−7 M was more than 60% or the value of IC50 was more than 200 nM.)
10 | CN(C)c1nc(N[C@H]2CC[C@@H](CNC(=S)Nc3ccccc3C#N)CC2)nc2ccccc12 [compound 723] | 3 (Class 3: The value of percent of control at 10^−7 M was more than 60% or the value of IC50 was more than 200 nM.)
11 | CN(C)c1nc(N[C@H]2CC[C@@H](CNC(=S)Nc3cccc(Cl)c3)CC2)nc2ccccc12 [compound 587] | 3 (Class 3: The value of percent of control at 10^−7 M was more than 60% or the value of IC50 was more than 200 nM.)
12 | COc1cccc(CNC(=S)N[C@H]2CC[C@@H](Nc3nc(N(C)C)c4ccccc4n3)CC2)c1 [compound 309, N-(cis-4-{[4-(dimethylamino)quinazolin-2-yl]amino}cyclohexyl)-N′-(3-methoxybenzyl)thiourea] | 2 (Class 2: The value of percent of control at 10^−7 M was from 40% to 60% or the value of IC50 was from 50 nM to 200 nM.)
13 | Cc1ccc([N+](=O)[O-])c(NC(=O)NC[C@H]2CC[C@@H](Nc3nc(N(C)C)c4ccccc4n3)CC2)c1C [compound 473] | 1 (Class 1: The value of percent of control at 10^−7 M was less than 40% or the value of IC50 was less than 50 nM.)
14 | CN(C)c1nc(N[C@H]2CC[C@@H](NC(=S)Nc3ccccc3I)CC2)nc2ccccc12 [compound 219] | 2 (Class 2: The value of percent of control at 10^−7 M was from 40% to 60% or the value of IC50 was from 50 nM to 200 nM.)
15 | CCOc1ccccc1NC(=S)NC[C@H]1CC[C@@H](Nc2nc(N(C)C)c3ccccc3n2)CC1 [compound 786, N-[(cis-4-{[4-(dimethylamino)quinazolin-2-yl]amino}cyclohexyl)methyl]-N′-(2-ethoxyphenyl)thiourea] | 2 (Class 2: The value of percent of control at 10^−7 M was from 40% to 60% or the value of IC50 was from 50 nM to 200 nM.)
16 | CN(C)c1nc(N[C@H]2CC[C@@H](CNC(=S)Nc3cc(C(F)(F)F)ccc3Cl)CC2)nc2ccccc12 [compound 677] | 3 (Class 3: The value of percent of control at 10^−7 M was more than 60% or the value of IC50 was more than 200 nM.)
17 | Cc1cc(Br)cc(C)c1NC(=S)N[C@H]1CC[C@@H](Nc2nc(N(C)C)c3ccccc3n2)CC1 [compound 266, N-(4-bromo-2,6-dimethylphenyl)-N′-(cis-4-{[4-(dimethylamino)quinazolin-2-yl]amino}cyclohexyl)thiourea] | 1 (Class 1: The value of percent of control at 10^−7 M was less than 40% or the value of IC50 was less than 50 nM.)
18 | CN(C)c1nc(N[C@H]2CC[C@@H](CNC(=O)NC(=O)c3ccccc3)CC2)nc2ccccc12 [compound 408] | 3 (Class 3: The value of percent of control at 10^−7 M was more than 60% or the value of IC50 was more than 200 nM.)
19 | COc1ccc(NC(=O)N[C@H]2CC[C@@H](Nc3nc(N(C)C)c4ccccc4n3)CC2)cc1OC1CCCC1 [compound 342, N-[3-(cyclopentyloxy)-4-methoxyphenyl]-N′-(cis-4-{[4-(dimethylamino)quinazolin-2-yl]amino}cyclohexyl)urea] | 1 (Class 1: The value of percent of control at 10^−7 M was less than 40% or the value of IC50 was less than 50 nM.)
20 | CN(C)c1nc(N[C@H]2CC[C@@H](CNC(=O)NC3C[C@H]3c3ccccc3)CC2)nc2ccccc12 (some centres unmarked) [compound 451] | 3 (Class 3: The value of percent of control at 10^−7 M was more than 60% or the value of IC50 was more than 200 nM.)
21 | Cc1noc(C)c1NC(=S)N[C@H]1CC[C@@H](Nc2nc(N(C)C)c3ccccc3n2)CC1 [compound 400] | 3 (Class 3: The value of percent of control at 10^−7 M was more than 60% or the value of IC50 was more than 200 nM.)
22 | CN(C)c1nc(N[C@H]2CC[C@@H](CNC(=O)Nc3ccccc3C(F)(F)F)CC2)nc2ccccc12 [compound 455, N-[(cis-4-{[4-(dimethylamino)quinazolin-2-yl]amino}cyclohexyl)methyl]-N′-[2-(trifluoromethyl)phenyl]urea] | 1 (Class 1: The value of percent of control at 10^−7 M was less than 40% or the value of IC50 was less than 50 nM.)

Same assay, conditions: class by percent of control at 10^-7 M or by IC50; read-out: class

Row | IC50 [nM] | Compound
23 | < 50 | CCc1cccc(CC)c1NC(=O)N[C@H]1CC[C@@H](Nc2nc(N(C)C)c3ccccc3n2)CC1 [compound 85, N-(2,6-diethylphenyl)-N′-(cis-4-{[4-(dimethylamino)quinazolin-2-yl]amino}cyclohexyl)urea]
24 | < 50 | CC(NC(=O)N[C@H]1CC[C@@H](Nc2nc(N(C)C)c3ccccc3n2)CC1)c1ccccc1 (relative stereo) [compound 65, N-(cis-4-{[4-(dimethylamino)quinazolin-2-yl]amino}cyclohexyl)-N′-(1-phenylethyl)urea]
25 | < 50 | CN(C)c1nc(N[C@H]2CC[C@@H](NC(=O)NCc3ccc(F)cc3)CC2)nc2ccccc12 [compound 824, N-(cis-4-{[4-(dimethylamino)quinazolin-2-yl]amino}cyclohexyl)-N′-(4-fluorobenzyl)urea]
26 | > 200 | CN(C)c1nc(N[C@H]2CC[C@@H](NC(=O)Nc3cccc(Cl)c3Cl)CC2)nc2ccccc12 [compound 24]
27 | < 50 | CN(C)c1nc(N[C@H]2CC[C@@H](NC(=O)Nc3ccccc3Cl)CC2)nc2ccccc12 [compound 18, N-(2-chlorophenyl)-N′-(cis-4-{[4-(dimethylamino)quinazolin-2-yl]amino}cyclohexyl)urea]
28 | < 50 | COC(=O)[C@H](Cc1ccccc1)NC(=O)N[C@H]1CC[C@@H](Nc2nc(N(C)C)c3ccccc3n2)CC1 (relative stereo) [compound 62, methyl N-{[(cis-4-{[4-(dimethylamino)quinazolin-2-yl]amino}cyclohexyl)amino]carbonyl}phenylalaninate]
29 | > 200 | CN(C)c1nc(N[C@H]2CC[C@@H](NC(=O)NC34CC5CC(CC(C5)C3)C4)CC2)nc2ccccc12 (relative stereo) [compound 5]
30 | < 50 | CN(C)c1nc(N[C@H]2CC[C@@H](NC(=O)OCc3ccc([N+](=O)[O-])cc3)CC2)nc2ccccc12 [compound 855]
31 | > 200 | CN(C)c1nc(N[C@H]2CC[C@@H](NC(=S)Nc3cccc(Br)c3)CC2)nc2ccccc12 [compound 157, N-(3-bromopheny)-N′-(cis-4-{[4-(dimethylamino)quinazolin-2-yl]amino}cyclohexyl)thiourea]

Same assay, conditions: class by percent of control at 10^−7 M or by IC50; read-out: class

Row | IC50 [nM] | Compound
32 | 50 to 200 | CN(C)c1nc(N[C@H]2CC[C@@H](CNC(=O)Nc3ccc(Cl)c(Cl)c3)CC2)nc2ccccc12 [Example 1026, N-(3,4-dichlorophenyl)-N′-[(cis-4-{[4-(dimethylamino)quinazolin-2-yl]amino}cyclohexyl)methyl]urea]
33 | > 200 | CN(C)c1nc(N[C@H]2CC[C@@H](C(=O)NCc3ccc(F)cc3F)CC2)nc2cc(F)c(F)cc12 [Example 997, cis-N-(2,4-difluorobenzyl)-4-{[4-(dimethylamino)-6,7-difluoroquinazolin-2-yl]amino}cyclohexanecarboxamide]
34 | < 50 | COc1cccc(C(=O)N[C@H]2CC[C@@H](Nc3nc(N(C)C)c4cc(F)c(F)cc4n3)CC2)c1 [Example 1208, N-(cis-4-{[4-(dimethylamino)-6,7-difluoroquinazolin-2-yl]amino}cyclohexyl)-3-methoxybenzamide]
35 | < 50 | CCC(=O)Nc1cccc(C(=O)N[C@H]2CC[C@@H](Nc3nc(N(C)C)c4ccccc4n3)CC2)c1 [Example 1200, N-(cis-4-{[4-(dimethylamino)quinazolin-2-yl]amino}cyclohexyl)-3-(propionylamino)benzamide]
